Experimental data: PubChem BioAssay AID1259407 (Chemical Carcinogenesis Research Information System (CCRIS), 2018)
The source made the active and inactive calls. No rule for the calls is given here.

Test system: CCRIS mutagenicity, Ames/micronucleus/aberration tests
Test: CCRIS mutagenicity studies
Settings: Test System: AMES SALMONELLA TYPHIMURIUM

What does the source list for CCCCC1C(=O)N(c2ccccc2)N(c2ccc(O)cc2)C1=O (stereo not drawn)?
mutagenic call (Strain/Indicator: TA97A, Metabolic Activation: NONE, Method: STANDARD PLATE): inactive; negative; mutagenic call (Strain/Indicator: TA97A, Metabolic Activation: RAT LIVER S-9, PHENOBARBITAL, Method: STANDARD PLATE): inactive; negative; mutagenic call (Strain/Indicator: TA98, Metabolic Activation: GUINEA PIG, LIVER, S-9, PCB, Method: PREINCUBATION): inactive; negative; mutagenic call (Strain/Indicator: TA98, Metabolic Activation: HAMSTER, LIVER, S-9, PCB, Method: PREINCUBATION): inactive; negative; mutagenic call (Strain/Indicator: TA98, Metabolic Activation: MOUSE, LIVER, S-9, PCB, Method: PREINCUBATION): inactive; negative; mutagenic call (Strain/Indicator: TA98, Metabolic Activation: NONE, Method: PREINCUBATION): inactive; negative; mutagenic call (Strain/Indicator: TA98, Metabolic Activation: NONE, Method: STANDARD PLATE): inactive; negative; mutagenic call (Strain/Indicator: TA98, Metabolic Activation: RAT LIVER S-9, PHENOBARBITAL, Method: STANDARD PLATE): inactive; negative; mutagenic call (Strain/Indicator: TA98, Metabolic Activation: RAT, LIVER, S-9, PCB, Method: PREINCUBATION): inactive; negative; mutagenic call (Strain/Indicator: TA100, Metabolic Activation: GUINEA PIG, LIVER, S-9, PCB, Method: PREINCUBATION): inactive; negative; mutagenic call (Strain/Indicator: TA100, Metabolic Activation: HAMSTER, LIVER, S-9, PCB, Method: PREINCUBATION): inactive; negative; mutagenic call (Strain/Indicator: TA100, Metabolic Activation: MOUSE, LIVER, S-9, PCB, Method: PREINCUBATION): inactive; negative; mutagenic call (Strain/Indicator: TA100, Metabolic Activation: NONE, Method: PREINCUBATION): inactive; negative; mutagenic call (Strain/Indicator: TA100, Metabolic Activation: NONE, Method: STANDARD PLATE): inactive; negative; mutagenic call (Strain/Indicator: TA100, Metabolic Activation: RAT LIVER S-9 PHENOBARBITAL, Method: STANDARD PLATE): inactive; negative; mutagenic call (Strain/Indicator: TA100, Metabolic Activation: RAT, LIVER, S-9, PCB, Method: PREINCUBATION): active; positive; mutagenic call (Strain/Indicator: TA102, Metabolic Activation: NONE, Method: STANDARD PLATE): inactive; negative; mutagenic call (Strain/Indicator: TA102, Metabolic Activation: RAT LIVER S-9, PHENOBARBITAL, Method: STANDARD PLATE): inactive; negative
